Assay results published in US20020098552A1, “Method for producing xanthosine-5'-monophosphate by fermentation using mutant strains of Coryneform bacteria” (priority 2000, published 2002).

Key:
[1] = tested on: Corynebacterium ammoniagenes AGRI10-52 (VKPM B-8006); details: mutant strain AGRI10-52
Method: (§1) Corynebacterium ammoniagenes AGRI45-11 (VKPM B-8009) was treated with 50 μg/ml of NTG for 20 minutes. Then cells were plated on PYM medium having the composition (g/L): peptone—10.0, yeast extract—10.0, meat extract—5.0, NaCl—2.5, agar—20.0, and containing 40 g/L, or 50 g/L, or 60 g/L glycine. The inoculated plates were incubated at 30° C. for 5 days.

[2] = tested on: Corynebacterium ammoniagenes AGRI45-11 (VKPM B-8009); type: cell-based; details: for Effect on growth of the XMP producer strain: in high concentration, strain AGRI45-11
Method: as §1
Corynebacterium ammoniagenes AGRI45-11 (VKPM B-8009) was treated with NTG, and cells were plated on the PYM medium as in Example 1, containing 45 μg/ml, or 50 μg/ml, or 55 μg/ml, or 60 μg/ml polymyxin. The inoculated plates were incubated at 30° C. for 5 days.
(§2) The parental strain Corynebacterium ammoniagenes AGRI45-11 (VKPM B-8009) was streaked onto PYM medium of Example 1, containing 5, 15, 30 or 50 μg/ml of rifampicin instead of glycine and inoculated plates were incubated at 34° C. for 3 days. The mutants resistant to rifampicin was selected from among spontaneously appeared colonies.
A series of mutants resistant to 50 or 100 μg/ml oligomycin was selected from the strain Corynebacterium anmoniagenes AGRI45-11 (VKPM B-8009) using the procedure, described in the Example 1, but oligomycin was used instead of glycine.
Corynebacterium ammoniagenes AGRI45-11 (VKPM B-8009) was treated with NTG, and cells were plated on PYM medium as in Example 1, containing 2, 4 or 6 μg/ml of CCCP instead of glycine. The inoculated plates were incubated at 30° C. for 5 days. […] This strain and the parent strain Corynebacterium ammoniagenes AGRI45-11 (VKPM B-8009) were each cultivated at 32° C. for 20 h with aeration in a seed medium as in the Example 1. Then 0.3 ml of the obtained culture was inoculated into 3 ml of the fermentation medium of the Example 1, in 20×200 mm test tubes, and cultivated at 32° C. for 72 hours with a rotary shaker. After the cultivation, an accumulated amount of XMP in the medium was determined by known method.
Corynebacterium ammoniagenes AGRI45-11 (VKPM B-8009) was treated with NTG as in Example 1, aliquots were introduced into 20×200 mm test tubes and incubated at 32° C. for 20 h with shaking in minimal medium having the following composition (see below) with a rotary shaker. Then the cells were collected and plated on the minimal medium agar and containing several combinations of the inhibitors:
(§3) The mutants resistant to the analogue were obtained using the procedure described in Example 6, except for the only combinations of the inhibitors was applied: DL-methionine sulfone-10 mg/ml +DL-methionine-20 mg/ml.

[3] = tested on: Corynebacterium ammoniagenes AGRI93-38 (VKPM B-8003); assay: Growth of the rifampicin-resistant mutant with rifampicin; type: cell-based; details: mutant strain AGRI93-38
Method: as §2, with “colonies. Among the mutants the most productive strain Corynebacterium ammoniagenes AGRI93-38 (VKPM B-8003) was selected.” for “colonies.”

[4] = tested on: Gram-positive bacterium Corynebacterium ammoniagenes; assay: Growth inhibition of Corynebacterium ammoniagenes by polymyxin B; type: cell-based; details: high concentrations
Description: Polymyxin B is a polypeptide antibiotics effective against Gram-negative bacteria. The cell membrane of the bacteria is considered to be the target of the antibiotic. […] The mutations conferring resistance to polymyxin B may affect cytoplasmic membrane and mimic a stress condition, inducing XMP efflux transporter. Therefore the mutants resistant to growth inhibition by the drug were selected.

[5] = tested on: Corynebacterium ammoniagenes AGRI101-51 (VKPM B-8010); assay: Growth of the polymyxin-resistant mutant in the presence of polymyxin; type: cell-based; details: mutant strain AGRI 101-51
[6] = tested on: Corynebacterium ammoniagenes AGRI47-51 (VKPM B-8007); assay: Growth of the methionine sulfone-resistant mutant with DL-methionine sulfone + DL-methionine; type: cell-based; details: mutant strain AGRI47-51
Method: as §3
Among the mutants which appeared after 4 to 8 days incubation the strain Corynebacterium ammoniagenes AGRI47-51 (VKPM B-8007) was selected. This strain and the parent strain Corynebacterium ammoniagenes AGRI45-11 (VKPM B-8009) were each cultivated at 32° C. for 20 h with aeration in a seed medium as in the Example 1. Then 0.3 ml of the obtained culture was inoculated into 3 ml of the fermentation medium of the Example 1, in 20×200 mm test tubes, and cultivated at 32° C. for 72 hours with a rotary shaker.

[7] = tested on: Corynebacterium ammoniagenes AGRI67-52 (VKPM B-8004); assay: Growth of the oligomycin-resistant mutant in the presence of oligomycin; type: cell-based; details: mutant strain AGRI67-52
Method: A series of mutants resistant to 50 or 100 μg/ml oligomycin was selected from the strain Corynebacterium anmoniagenes AGRI45-11 (VKPM B-8009) using the procedure, described in the Example 1, but oligomycin was used instead of glycine. […] The best mutant, strain Corynebacterium ammoniagenes AGRI67-52 (VKPM B-8004) when tested in parallel as in Example 1 accumulated about 22 % more XMP than the parental strain Corynebacterium ammoniagenes AGRI45-11 (VKPM B-8009) (Table 4 ).

[8] = tested on: Corynebacterium ammoniagenes AGRI97-52 (VKPM B-8008); assay: Growth of the CCCP-resistant mutant with CCCP; type: cell-based; details: mutant strain AGRI97-52
[9] = tested on: Corynebacterium ammoniagenes AGRI11-51 (VKPM B-8005); assay: Growth of the methionine sulfoxide-resistant mutant with DL-methionine sulfoxide + DL-methionine; type: cell-based; details: mutant strain AGRI11-51
Method: Then the cells were collected and plated on the minimal medium agar and containing several combinations of the inhibitors:
Mutants which appeared after 4 to 8 days incubation were picked up and tested for their XMP productivity. Among them the strain Corynebacterium ammoniagenes AGRI11-51 (VKPM B-8005) was selected. This strain and the parent strain Corynebacterium anmoniagenes AGRI45-11 (VKPM B-8009) were each cultivated at 32° C. for 20 h with aeration in a seed medium as in the Example 1. Then 0.3 ml of the obtained culture was inoculated into 3 ml of the fermentation medium of the Example 1, in 20×200 mm test tubes, and cultivated at 32° C. for 72 hours with a rotary shaker. After the cultivation, an accumulated amount of XMP in the medium was determined by known method.

## NCC(=O)O [glycine]
[1]
  Growth in the presence of 6% glycine: +
[2]; 6% glycine, parent strain AGRI45-11
  Growth in the presence of 6% glycine: −

## CO[C@H]1/C=C/O[C@@]2(C)Oc3c(C)c(O)c4c(O)c(c(/C=N/N5CCN(C)CC5)c(O)c4c3C2=O)NC(=O)/C(C)=C\C=C\[C@H](C)[C@H](O)[C@@H](C)[C@@H](O)[C@@H](C)[C@H](OC(C)=O)[C@@H]1C [rifampicin]
[2]; 15 μg/ml rifampicin, parent strain AGRI45-11
  Growth with 15 μg/ml rifampicin: −
[3]
  Growth with 15 μg/ml rifampicin: +

## Polymyxin B
[2]; 45 μg/ml polymyxin, parent strain AGRI45-11
  Growth in the presence of 45 μg/ml polymyxin: −
[4]
  Concentration that inhibited the growth: 40 to 50 µg/mL
[5]
  Growth in the presence of 45 μg/ml polymyxin: +

## CSCCC(N)C(=O)O (racemic) [DL-methionine]
[2]
  Effect on growth of the XMP producer strain: inhibited the growth

## CS(=O)(=O)CCC(N)C(=O)O (racemic) [DL-methionine sulfone]
[2]; 10 mg/ml DL-methionine sulfone + 20 mg/ml DL-methionine, parent strain AGRI45-11
  Growth with 10 mg/ml DL-methionine sulfone + 20 mg/ml DL-methionine: −
[2]
  Effect on growth of the XMP producer strain: inhibited the growth
[6]
  Growth with 10 mg/ml DL-methionine sulfone + 20 mg/ml DL-methionine: +

## CC[C@H]1/C=C/C=C/C[C@@H](C)[C@H](O)[C@@](C)(O)C(=O)[C@@H](C)[C@H](O)[C@@H](C)C(=O)[C@@H](C)[C@H](O)[C@@H](C)/C=C/C(=O)O[C@@H]2[C@H](C)[C@H](CC1)O[C@]1(CC[C@H](C)[C@H](C[C@@H](C)O)O1)[C@H]2C [oligomycin]
[2]; 100 μg/ml oligomycin, parent strain AGRI45-11
  Growth in the presence of 100 μg/ml oligomycin: −
[7]
  Growth in the presence of 100 μg/ml oligomycin: +

## N#CC(C#N)=NNc1cccc(Cl)c1 [CCCP, Carbonyl cyanide m-chlorophenyl hydrazone]
[2]; 4 μg/ml CCCP, parent strain AGRI45-11
  Growth with 4 μg/ml CCCP: −
[8]
  Growth with 4 μg/ml CCCP: +

## C[S+]([O-])CCC(N)C(=O)O (racemic) [DL-methionine sulfoxide]
[2]; 10 mg/ml DL-methionine sulfoxide + 20 mg/ml DL-methionine, parent strain AGRI45-11
  Growth with 10 mg/ml DL-methionine sulfoxide + 20 mg/ml DL-methionine: −
[2]
  Effect on growth of the XMP producer strain: inhibited the growth
[9]
  Growth with 10 mg/ml DL-methionine sulfoxide + 20 mg/ml DL-methionine: +
